Experiments:
[1] = target: T1, Transient receptor potential cation channel subfamily V member 1 (Homo sapiens, UniProt Q8NER1); assay: Capsaicin-Based Assay: Two days prior to performing this assay, cells are seeded in poly-D-lysine-coated 96-well clear-bottom black plates (50,000 cells/well) in growth media containing 5 uM PonA (commercially available from Invitrogen) to induce expression of TRPV1. On the day of the assay, the plates are washed with 0.2 mL 1x Hank's Balanced Salt Solution (commercially available from Life Technologies) containing 1 mM CaCl2 and 20 mM HEPES, pH 7.4, and cells are loaded using 0.1 mL of wash buffer containing Fluo-4 (3 uM final). After one hour, the cells are washed twice with 0.2 mL of wash buffer and resuspended in 0.1 mL of wash buffer. The plates are transferred to a FLIPR for assay. 50 uL of test compound diluted with assay buffer (1x Hank's Balanced Salt Solution containing 1 mM CaCl2 and 20 mM HEPES, pH 7.4) are added to the cell plates and incubated for 2 min. The final concentration of the compound is adjusted to range from about 50 picoM to about 3 uM.
T1 sequence (Q8NER1 whole entry): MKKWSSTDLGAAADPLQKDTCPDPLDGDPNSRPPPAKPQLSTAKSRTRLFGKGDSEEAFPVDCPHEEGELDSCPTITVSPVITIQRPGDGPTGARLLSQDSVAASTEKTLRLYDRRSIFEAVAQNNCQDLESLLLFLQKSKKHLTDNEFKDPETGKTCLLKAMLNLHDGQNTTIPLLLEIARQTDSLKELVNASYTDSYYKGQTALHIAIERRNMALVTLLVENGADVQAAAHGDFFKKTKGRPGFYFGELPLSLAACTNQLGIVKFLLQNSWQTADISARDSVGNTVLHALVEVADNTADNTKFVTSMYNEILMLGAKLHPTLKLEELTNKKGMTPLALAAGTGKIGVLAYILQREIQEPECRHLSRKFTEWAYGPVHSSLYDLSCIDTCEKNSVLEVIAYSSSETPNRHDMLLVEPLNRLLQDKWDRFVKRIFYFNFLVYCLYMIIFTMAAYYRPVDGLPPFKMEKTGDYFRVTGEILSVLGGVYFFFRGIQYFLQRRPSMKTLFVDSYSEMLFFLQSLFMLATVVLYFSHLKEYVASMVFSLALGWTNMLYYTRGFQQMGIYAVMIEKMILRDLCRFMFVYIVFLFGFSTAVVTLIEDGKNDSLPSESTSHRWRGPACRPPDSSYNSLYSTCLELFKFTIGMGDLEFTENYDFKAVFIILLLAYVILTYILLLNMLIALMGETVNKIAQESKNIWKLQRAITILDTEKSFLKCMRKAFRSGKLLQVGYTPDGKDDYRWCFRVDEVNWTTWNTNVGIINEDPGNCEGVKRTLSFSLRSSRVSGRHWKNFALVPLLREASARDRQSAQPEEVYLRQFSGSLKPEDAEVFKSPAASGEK

[2] = target: T1, Transient receptor potential cation channel subfamily V member 1; assay: pH-Based Assay: Two days prior to performing this assay, cells are seeded on poly-D-lysine-coated 96-well clear-bottom black plates (commercially available from Becton-Dickinson) at 75,000 cells/well in growth media containing 5 uM PonA (commercially available from Invitrogen) to induce expression of TRPV1. On the day of the assay, the plates are washed with 0.2 mL 1x Hank's Balanced Salt Solution (commercially available from Life Technologies) containing 1.6 mM CaCl2 and 20 mM HEPES, pH 7.4 (wash buffer), and loaded using 0.1 mL of wash buffer containing Fluo-4 (3 uM final concentration, commercially available from Molecular Probes). After 1 h, the cells are washed twice with 0.2 mL wash buffer and resuspended in 0.05 mL 1x Hank's Balanced Salt Solution (commercially available from Life Technologies) containing 3.5 mM CaCl2 and 10 mM Citrate, pH 7.4 (assay buffer). Plates are then transferred to a FLIPR for assay.

Compound | IC50 [1] [nM] | IC50 [2] [nM]
Cc1cc(NC(=O)N2CC=C(c3ncc(-c4nnc(CCO)o4)cc3Cl)CC2)ccc1OC(F)(F)F | – | < 100
Cc1noc(-c2cnc(C3=CCN(C(=O)Nc4ccc(OC(F)(F)F)cc4)CC3)c(Cl)c2)n1 | – | < 100
Cc1cc(NC(=O)N2CC=C(c3ncc(-c4nnc(CCO)o4)cc3Cl)CC2)ccc1C(F)(F)F | – | < 100
Cc1nnc(-c2cnc(C3=CCN(C(=O)Nc4ccc(OC(F)(F)F)cc4)CC3)c(Cl)c2)o1 | < 100 | –
O=C(C#Cc1ccc(-c2nnc(CO)o2)cc1Cl)Nc1ccc(C(F)(F)F)c(Cl)c1 | < 100 | –
O=C(Nc1ccc(C(F)(F)F)c(Cl)c1)N1CCN(c2ncc(-c3nnc(CO)o3)cc2Cl)CC1 | – | < 100
Cc1cc(NC(=O)N2CC=C(c3ncc(-c4nc(CO)no4)cc3Cl)CC2)ccc1C(F)(F)F | – | < 100
O=C(Nc1ccc(C(F)(F)F)c(Cl)c1)N1CC=C(c2ncc(-c3ocnc3CO)cc2Cl)CC1 | – | < 100
O=C(C#Cc1ccc(-c2nnc(CO)o2)cc1Cl)Nc1ccc(C(F)(F)F)cc1 | < 100 | –
O=C(Nc1ccc(C(F)(F)F)c(Cl)c1)N1CC=C(c2ncc(-c3nnc(CO)o3)cc2Cl)CC1 | < 100 | –
Cc1noc(-c2cnc(C3=CCN(C(=O)Nc4ccc(C(F)(F)F)cc4)CC3)c(Cl)c2)n1 | – | < 100
Cc1cc(NC(=O)N2CC=C(c3ncc(-c4nc(CO)no4)cc3F)CC2)ccc1C(F)(F)F | < 100 | –
O=C(Nc1ccc(C(F)(F)F)c(Cl)c1)N1CC=C(c2ncc(-c3cc(CO)on3)cc2Cl)CC1 | – | < 100
Cc1nnc(-c2cnc(C3=CCN(C(=O)Nc4ccc(C(F)(F)F)cc4)CC3)c(Cl)c2)o1 | < 100 | –

Results, then the compound that gave them:

IC50 [1] [nM] | IC50 [2] [nM] | Compound
< 100 | – | O=C(Nc1ccc(C(F)(F)F)cn1)N1CC=C(c2ncc(-c3nc(CO)no3)cc2Cl)CC1
– | < 100 | O=C(Nc1ccc(C(F)(F)F)cn1)N1CCN(c2ncc(-c3nc(CO)no3)cc2Cl)CC1
< 100 | – | Cc1cc(NC(=O)N2CCC(F)(c3ncc(-c4ocnc4CO)cc3Cl)CC2)ccc1C(F)(F)F
< 100 | – | O=C(Nc1ccc(C(F)(F)F)c(Cl)c1)N1CC=C(c2ncc(-c3noc(CO)n3)cc2Cl)CC1
– | < 100 | O=C(Nc1ccc(C(F)(F)F)cn1)N1CC=C(c2ncc(-c3cnc(CO)o3)cc2Cl)CC1
– | < 100 | Cc1cc(NC(=O)N2CCN(c3ncc(-c4nc(CO)no4)cc3Cl)CC2)ccc1C(F)(F)F
< 100 | – | O=C(Nc1ccc(C(F)(F)F)cc1)N1CC=C(c2ncc(-c3nnc(CO)o3)cc2Cl)CC1
< 100 | – | O=C(Nc1ccc(C(F)(F)F)cn1)N1CC=C(c2ncc(-c3noc(CO)n3)cc2Cl)CC1
– | < 100 | Cc1cc(NC(=O)N2CCN(c3ncc(-c4nnc(CO)o4)cc3Cl)CC2)ccc1C(F)(F)F
< 100 | – | O=C(Nc1ccc(C(F)(F)F)cn1)N1CCN(c2ncc(-c3nnc(CO)o3)cc2Cl)CC1
– | < 100 | Cc1nnc(-c2cnc(C3=CCN(C(=O)Nc4ccc(C(F)(F)F)cn4)CC3)c(Cl)c2)o1
– | < 100 | O=C(Nc1ccc(C(F)(F)F)c(Cl)c1)N1CCC(F)(c2ncc(-c3nc(CO)no3)cc2Cl)CC1
< 100 | – | O=C(Nc1ccc(C(F)(F)F)cn1)N1CC=C(c2ncc(-c3nnc(CO)o3)cc2Cl)CC1
– | < 100 | O=C(Nc1ccc(C(F)(F)F)cn1)N1CC=C(c2ccc(-c3nnc(CO)o3)cc2Cl)CC1
– | < 100 | O=C(Nc1ccc(C(F)(F)F)cn1)N1CC=C(c2ncc(-c3cc(CO)on3)cc2Cl)CC1
< 100 | – | O=C(Nc1ccc(C(F)(F)F)cn1)N1CC=C(c2ncc(-c3nc(CO)no3)cc2F)CC1
– | < 100 | Cc1cc(NC(=O)N2CCC(F)(c3ncc(-c4nc(CO)no4)cc3Cl)CC2)ccc1C(F)(F)F
– | < 100 | O=C(Nc1ccc(C(F)(F)F)c(Cl)c1)N1CCC(F)(c2ncc(-c3noc(CO)n3)cc2Cl)CC1
– | < 100 | O=C(Nc1ccc(C(F)(F)F)cn1)N1CCC(F)(c2ncc(-c3noc(CO)n3)cc2Cl)CC1

From ChEMBL document CHEMBL3886166, “Heterocyclic compounds” (2015)
